In data set [1] the test system is Schistosoma mansoni. In words: Antischistosomal activity against Schistosoma mansoni infected in golden syrian hamster assessed as worm killing at 143 uM pretreated for 45 mins followed by compound washout measured after 14 days. It is filed as functional.
Data set [2] deals with Schistosoma haematobium. Nature of the data set: Antischistosomal activity against Schistosoma haematobium infected in golden syrian hamster assessed as worm killing at 143 uM pretreated for 45 mins followed by compound washout measured after 14 days. The class given is functional.
Data set [3] has as its system Schistosoma japonicum. In words: Antischistosomal activity against Schistosoma japonicum infected in golden syrian hamster assessed as worm killing at 143 uM pretreated for 45 mins followed by compound washout measured after 14 days. The class given is functional.
Data set [4] can be described thus: Lipophilicity, log D of the compound. It is filed as physicochemical. The note with it: octanol/water.
A short description of data set [5]: Dissociation constant, pKa of the compound. It is filed as physicochemical.

`O=[N+]([O-])c1cc(NC2CCCN(Cc3ccccn3)C2)ccc1CO` (stereo not given): the Activity in data set [1] amounted to 0%.
For the compound `O=[N+]([O-])c1ccc(CN2CCC(Nc3ccc(CO)c([N+](=O)[O-])c3)C2)cc1` (stereo not given), the Activity in data set [1] is recorded as 17%.
Consider `O=[N+]([O-])c1cc(NC2CCN(Cc3cccc(C(F)(F)F)c3)C2)ccc1CO` (stereo not given), for which the Activity was determined as 93% in data set [1] and 8% in data set [2].
In the case of `O=[N+]([O-])c1cc(NC2CCN(Cc3ccc(C(F)(F)F)cc3)CC2)ccc1CO`, the results for the Activity in data set [1] and in data set [2] were 81% and 0%, respectively.
On to `O=[N+]([O-])c1cc(NC2CCCNC2)ccc1CO` (stereo not given), for which the Activity in data set [1] is on record as 50%.
With `O=[N+]([O-])c1cc(NC2CCN(Cc3ccccn3)C2)ccc1CO` (stereo not given), the Activity in data set [1] amounted to 0%.
Regarding `O=[N+]([O-])c1cc(NC2CCCN(Cc3ccccc3)C2)ccc1CO` (stereo not given), in data set [1], the Activity is reported as 60%.
As to `O=[N+]([O-])c1cc(NC2CCN(Cc3ccccc3C(F)(F)F)C2)ccc1CO` (stereo not given), the Activity in data set [1] came out at 27%.
On to `O=[N+]([O-])c1cc(NC2CCN(Cc3ccc(C(F)(F)F)cc3)C2)ccc1CO` (stereo not given), for which the Activity amounted to 100% in data set [1] and 10% in data set [2].
Regarding `O=[N+]([O-])c1cc(NC2CCCN(Cc3ccc(OC(F)(F)F)cc3)C2)ccc1CO` (stereo not given), the Activity in data set [1] was found to be 40%; in data set [2], 43%; in data set [3] it was 10%.
Take `O=[N+]([O-])c1cc(NC2CCN(Cc3ccccc3)C2)ccc1CO` (stereo not given): the Activity in data set [1] is listed as 75%.
For `COc1ccccc1CN1CCC(Nc2ccc(CO)c([N+](=O)[O-])c2)C1` (stereo not given), the Activity in data set [1] is listed as 7%.
On to `O=[N+]([O-])c1cc(NC2CCCN(Cc3ccccc3C(F)(F)F)C2)ccc1CO` (stereo not given), for which the Activity in data set [1] is on record as 75%; in data set [2], 40%; in data set [3], 83%. In data set [4], this compound came in with a log distribution coefficient (logD) of 3.27. The compound further displayed a pKa in data set [5] of 5.9.
As for `Cn1cncc1CN1CCCC(Nc2ccc(CO)c([N+](=O)[O-])c2)C1` (stereo not given), the Activity in data set [1] is given as 20%.
Take `O=[N+]([O-])c1cc(NC2CCN(Cc3ccccc3C(F)(F)F)CC2)ccc1CO`: the Activity in data set [1] is recorded as 20%.
Turning to `O=[N+]([O-])c1cc(NC2CCN(Cc3ccc(OC(F)(F)F)cc3)CC2)ccc1CO`, the Activity in data set [1] was determined as 97%; in data set [2], 14%.
On to `CC(C)N1CCC(Nc2ccc(CO)c([N+](=O)[O-])c2)C1` (stereo not given), for which, in data set [1], the Activity worked out at 40%.
In the case of `O=[N+]([O-])c1cc(NC2CCCN(CCc3ccccc3)C2)ccc1CO` (stereo not given), the Activity in data set [1] worked out at 40%.
`O=[N+]([O-])c1cc(NC2CCN(Cc3c[nH]c4ccccc34)C2)ccc1CO` (stereo not given): the Activity in data set [1] worked out at 85%.
On to `O=[N+]([O-])c1cc(NC2CCN(Cc3ccccc3OC(F)(F)F)C2)ccc1CO` (stereo not given), for which the Activity in data set [1] was 100%; in data set [2], below 40%.
With `O=[N+]([O-])c1cc(NC2CCN(Cc3cccc(OC(F)(F)F)c3)C2)ccc1CO` (stereo not given), the Activity in data set [1] worked out at 60%.
On to `CC(C)N1CCCC(Nc2ccc(CO)c([N+](=O)[O-])c2)C1` (stereo not given), for which the Activity in data set [1] is recorded as 10%.
For the compound `O=[N+]([O-])c1cc(NC2CCCN(Cc3ccccc3OC(F)(F)F)C2)ccc1CO` (stereo not given), the Activity is recorded as 84% in data set [1] and below 40% in data set [2].
Regarding `Cn1cncc1CN1CCC(Nc2ccc(CO)c([N+](=O)[O-])c2)C1` (stereo not given), the Activity in data set [1] was 0%.
For `O=[N+]([O-])c1cc(NC2CCN(Cc3ccccc3F)C2)ccc1CO` (stereo not given), the Activity in data set [1] was 30%.
Consider `O=[N+]([O-])c1cc(NC2CCN(Cc3ccc(OC(F)(F)F)cc3)C2)ccc1CO` (stereo not given), for which the Activity in data set [1] stood at 87%; in data set [2], 40%; in data set [3], 0%.
As for `O=[N+]([O-])c1cc(NC2CCN(Cc3ccc(Cl)cc3Cl)C2)ccc1CO` (stereo not given), the Activity in data set [1] turned out to be 17%.
As to `O=[N+]([O-])c1cc(NC2CCN(CCc3ccccc3)C2)ccc1CO` (stereo not given), in data set [1], the Activity came to 7%.
For `O=[N+]([O-])c1cc(NC2CCCN(Cc3cccc(C(F)(F)F)c3)C2)ccc1CO` (stereo not given), the Activity in data set [1] is reported as 100%; in data set [2], 2%; in data set [3], 2%.
`O=[N+]([O-])c1cc(NC2CCNC2)ccc1CO` (stereo not given): the Activity in data set [1] was 10%.
On to `O=[N+]([O-])c1cc(NC2CCCN(Cc3c[nH]c4ccccc34)C2)ccc1CO` (stereo not given), for which, in data set [1], the Activity worked out at 26%.
Turning to `CC(C)NCC1CCc2cc(CO)c([N+](=O)[O-])cc2N1` (stereo not given) [OXAMNIQUINE], the Activity is 50 - 85% in data set [1], 0% in data set [2] and 0% in data set [3].

Usually logD stands for the decadic logarithm of the distribution of all forms, ionised or not, between an organic phase and buffer at a given pH. A higher logD goes with a more lipophilic compound. Broadly, the pKa is the pH at which an ionisable group is half protonated.
